Here are results for 62 compounds from a melting point compilation (Tetko et al.; mined from patent text by program, amines drawn as free bases though some values may be those of a salt).

For orientation: melting point means the temperature of the solid-liquid transition.

`CCCn1c(=O)cc2n(c1=O)CC(CSc1ccccc1)S2` (configuration not stated) yielded a melting point of 88 to 89 °C.

`C=CCN1CCN(c2cc(-c3ccccc3)c3ccc(=O)ccn23)CC1`: the melting point stood at 125 °C.

`O=C(O)COc1cccc2c1CC(S(=O)(=O)Cc1ccccc1)c1sc(-c3ccc(F)cc3)nc1-2` (configuration not stated) gave a melting point of 210 to 211 °C.

Compound `CCCCC(=O)Nc1ccc(C(F)(F)F)c(-n2nc(CC)n(Cc3ccc(-c4ccccc4S(=O)(=O)NC(=O)OC(C)(C)C)cc3F)c2=O)c1` came in with a melting point of 121 to 123 °C.

Regarding `CC(=Cc1c(-c2ccccc2)nc2sc(C)nn12)C(=O)O`, the melting point was in the range of 298 to 300 °C.

The compound `CCOC(=O)c1cc2cc([N+](=O)[O-])cc(C)c2o1` registered a melting point of 125 to 126 °C.

`COCCOc1ccc(CCC(=O)NS(=O)(=O)c2ccc(Cl)cc2)c(Oc2ncc(C(F)(F)F)cc2Cl)c1` registered a melting point of 140 to 142 °C.

In the case of `CCC(C(C)=CC(CNC(=O)c1nccnc1N)=NO)[N+](=O)[O-]` (configuration not stated), the melting point was in the range of 139 to 141 °C.

For `OC(CNCCCCCCOCCCc1ccc(N2CCCCC2)cc1)c1ccc2c(n1)COC(c1ccccc1)O2` (configuration not stated), the melting point lay in the range of 75 to 76 °C.

`COc1ccc2[nH]cc(CCN=c3sc4ccccc4s3)c2c1`: the melting point was in the range of 139 to 140 °C.

The compound `CCS(=O)(=O)CCC(=O)NNC(=O)N1Cc2ccccc2Oc2ccc([N+](=O)[O-])cc21` came in with a melting point of 198 to 200 °C.

The compound `CCn1ncc2c(NCC3CCCCC3)c3cc(OCC(O)CO)ccc3nc21` (configuration not stated) had a melting point of 197 to 199 °C.

In turn, `CC(=O)NC[C@H]1CN(c2ccc(N3CCC(O)(C(N)=O)CC3)c(F)c2)C(=O)O1` displayed a melting point of 238 to 240 °C.

In the case of `COc1ccccc1N1CCN(CCCCN2CSCC2=O)CC1`, the melting point fell in the range of 80 to 81 °C.

In turn, `CC(C)(C)OC(=O)NC1Cc2cccc(c2)CC(C(=O)O)NC(=O)CNC1=O` (configuration not stated) gave a melting point of over 250 °C.

The compound `CCCNC(=O)c1ccc(-c2ccc3nnn(Cc4ccc5ncccc5c4)c3n2)cc1F` gave a melting point of 157 to 159 °C.

`COc1cc2c(cc1OC)-c1cc3ccccc3nc1CC2` had a melting point of 55 to 56 °C.

As for `CSc1ccc(C2=C(c3ccccc3)C(=O)OC23CCCC3)cc1`, the melting point was in the range of 147 to 148 °C.

Turning to `CSC1=C(Cl)CC2C3CCC4=CC(=O)C=CC4(C)C3(F)C(O)CC12C` (configuration not stated), the melting point lay within 262 to 268 °C.

`Cn1c(=O)c(C(=O)NC2CCCCC2)c(O)c2ccccc21` came in with a melting point of 145 °C.

`COc1ccc(S(=O)(=O)NC(=O)c2ccc(C(=O)NCCO)nc2)cc1`: the melting point fell in the range of 221 to 223 °C.

As for `NC(Cc1cc(Cl)ccc1CCP(=O)(O)O)C(=O)O` (configuration not stated), the melting point is over 160 °C.

On to `COC(=O)CC(=O)NC(N)Cc1ccccc1` (configuration not stated), for which the melting point was 98 to 102 °C.

The compound `NC(=O)c1ccc(-c2ccccc2C(=O)N2Cc3cccn3Cc3ccccc32)cc1C(F)(F)F` had a melting point of 226 to 228 °C.

In turn, `CC(Oc1ncn(-c2cccc(Cl)c2)n1)C(=O)N(C)C` (configuration not stated) yielded a melting point of 136 to 139 °C.

Turning to `CCOC(=O)[C@H](Cc1cc(OC)c(OC)cc1I)NC=O`, the melting point lay in the range of 151 to 152 °C.

The compound `CCN1CC(=O)N(c2cc(Oc3ncccc3C(F)(F)F)c(Cl)cc2F)C1=O` yielded a melting point of 162 to 163 °C.

`CC(C)NCCCCCCOc1ccc(OCc2ccccc2)cc1` had a melting point of 47 to 49 °C.

`COC(=O)c1cc(O)c(O)c(S(=O)(=O)O)c1` had a melting point of 116 °C.

`O=C(Nc1nnc[nH]1)c1ccc2ccccc2c1` had a melting point of 191 to 192 °C.

`CNS(=O)(=O)c1ccc(C)c(CCCOCCn2cnc3c(N)nc4ccccc4c32)c1` came in with a melting point of 207 to 209 °C.

As to `O=C(OC#CCc1ccccc1)C1CN=CNC1` (configuration not stated), the melting point lay within 117 to 118 °C.

Turning to `CNC(=O)Nc1cccc(-c2noc(C(F)(F)F)n2)c1`, the melting point was 141 to 143 °C.

`Nc1nc(F)cc(Oc2ccc(Cl)cc2)n1` came in with a melting point of 223 to 226 °C.

In turn, `CC(=O)Nc1ccc2c(c1)C(c1ccccc1F)=NCc1cnc(C)n1-2` registered a melting point of 326 to 331 °C.

The compound `CC1(C)OC(=C(C#N)C#N)C(C#N)=C1c1ccc(C2CCCCCN2)s1` (configuration not stated) yielded a melting point of 264 °C.

In turn, `COC[C@@H]1Cc2ccccc2N1S(=O)(=O)c1ccc2c(c1)C(=O)C1=NCC(C)(C)CN12` yielded a melting point of 173 to 175 °C.

`O=C(O)C1Cc2c(ccc3c(=O)c4ccccc4oc23)O1` (configuration not stated) showed a melting point of 283 to 286 °C.

`ON=C1CCC(C2CCCCC2)=C1c1ccc(F)cc1`: the melting point lay within 173 to 176 °C.

Compound `COCC1COC(Cn2cncn2)(c2ccc(Cl)cc2Cl)O1` (configuration not stated) had a melting point of 64 to 74 °C.

For `CS(=O)c1csc(C(=O)C2C(=O)N(C(N)=O)c3ccc(Cl)cc32)c1` (configuration not stated), the melting point was in the range of 204 to 206 °C.

Consider `Cc1nc(-c2cc(N)ccc2F)cs1`, for which the melting point is 73 to 75 °C.

`CCCCCc1ccc(CCc2ccc(-c3ccc(OC(F)(F)F)cc3)cc2)cc1`: the melting point came to 60 °C.

Take `CCCC1=C(C(=O)OCC)C(c2c(OC)ccc3ccccc23)c2c[nH]nc2N1` (configuration not stated): the melting point lay in the range of 188 to 191 °C.

The compound `CC1(C)CC2(CC(C)(C)c3ccc(Oc4ccc([N+](=O)[O-])cc4)cc32)c2cc(Oc3ccc([N+](=O)[O-])cc3)ccc21` showed a melting point of 200 to 202 °C.

In turn, `CC1CCCC(C)N1Cc1ccc2cc(NC(=O)c3ccc(-c4ccccc4)cc3)ccc2n1` (configuration not stated) displayed a melting point of 180 to 181 °C.

The compound `CCOC(=O)c1[nH]c2cc(Cl)cc(Cl)c2c1NCS(=O)(=O)c1ccccc1` returned a melting point of 244 to 245 °C.

In turn, `CC(C)CC(C=CCC(N)=O)NC(=O)C1CCCN1C(=O)OCc1ccccc1` (configuration not stated) gave a melting point of 140 to 142 °C.

Regarding `CCOC(=O)C1=Cc2cc(Br)c(F)cc2OC1C(F)(F)F` (configuration not stated), the melting point fell in the range of 98.5 to 100 °C.

Compound `COCc1cc(-c2c(S(C)(=O)=O)ccc(C(=O)C3C(=O)CCCC3=O)c2Cl)no1` returned a melting point of 39 to 40 °C.

`C#Cc1ccc2c(c1)[C@@H](N)[C@H](O)CO2` (relative stereo) had a melting point of 132 to 134 °C.

`COc1cccc2c1OC(C)C2=O` (configuration not stated) yielded a melting point of 60 to 61 °C.

As for `C=CC[C@H]1C[C@@](OS(C)(=O)=O)(C(=O)OC)C[C@@H](OC(=O)c2ccccc2)[C@@H]1OS(C)(=O)=O`, the melting point was 154 to 155 °C.

Take `CCOC(=O)C(C)OCC#Cc1cc(Cl)ccc1NS(=O)(=O)c1ccc2ncsc2c1` (configuration not stated): the melting point was 166 to 168 °C.

Regarding `CCOC(=O)CC1(O)C(=O)Nc2ccc(F)cc21` (configuration not stated), the melting point was in the range of 133 to 135 °C.

As to `Nc1ccc(-c2nccc(-c3nc(-c4ccc(C(F)(F)F)cc4)cc(C(F)(F)F)n3)n2)cn1`, the melting point was found to be 236 °C.

For `O=C(O)Cc1cc(C(=O)c2ccc([N+](=O)[O-])cc2)ccc1O`, the melting point is 213 °C.

As for `CCCCCc1c([N+](=O)[O-])cc([N+](=O)[O-])c2nc(C(F)(F)F)[nH]c12`, the melting point was 86 to 88 °C.

The compound `O=S1(=O)N=CN(CCF)c2ccc(Cl)cc21` showed a melting point of 211 to 218 °C.

`O=C(O)C=C1c2ccccc2CCc2cc(Cl)ccc21` had a melting point of 155 to 175 °C.

In turn, `NC(=O)N1CC(OCc2cccc(Cl)c2)C1` registered a melting point of 163 to 166 °C.

Compound `CCNC1CCN(c2c(F)cc3c(=O)c(C(=O)O)cn(C4CC4)c3c2C)CC1(C)C` (configuration not stated) came in with a melting point of 201 to 203 °C.
